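Compound exposure: 48 hours, 5 concentrations, 96-well plates. GI50 marks 50% less growth.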 Activity calls are given as the source filed them. Cut-off read from the data, not from the text of the source: active = GI50 up to about 1.1 µM and inactive = higher.
Assays:
Test in all cases: NCI tumour cell line growth inhibition, 48 h
UACC-62 = test system: UACC-62
MDA-N = test system: MDA-N
SK-MEL-2 = test system: SK-MEL-2
EKVX = test system: EKVX
MOLT-4 = test system: MOLT-4
M14 = test system: M14
NCI-H23 = test system: NCI-H23
UO-31 = test system: UO-31
SN12C = test system: SN12C
IGROV-1 = test system: IGROV-1
RPMI-8226 = test system: RPMI-8226
OVCAR-4 = test system: OVCAR-4
RXF 393 = test system: RXF 393
NCI-H522 = test system: NCI-H522
Malme-3M = test system: Malme-3M
OVCAR-5 = test system: OVCAR-5
MCF7 = test system: MCF7
SF-268 = test system: SF-268
ACHN = test system: ACHN
DU-145 = test system: DU-145
HCT-15 = test system: HCT-15
CAKI-1 = test system: CAKI-1
Hs-578T = test system: Hs-578T
HOP-62 = test system: HOP-62
HL-60 = test system: HL-60
HCC 2998 = test system: HCC 2998
UACC-257 = test system: UACC-257
SF-539 = test system: SF-539
SK-MEL-28 = test system: SK-MEL-28
SNB-19 = test system: SNB-19
PC-3 = test system: PC-3
LOX IMVI = test system: LOX IMVI
SW-620 = test system: SW-620
SR = test system: SR
MDA-MB-231 = test system: MDA-MB-231
A498 = test system: A498
BT-549 = test system: BT-549
HCT-116 = test system: HCT-116
KM12 = test system: KM12
SNB-75 = test system: SNB-75
NCI-H226 = test system: NCI-H226
786-0 = test system: 786-0
HT-29 = test system: HT-29
COLO 205 = test system: COLO 205
NCI-H460 = test system: NCI-H460
OVCAR-8 = test system: OVCAR-8
U-251 = test system: U-251
MDA-MB-435 = test system: MDA-MB-435
T47D = test system: T47D
K562 = test system: K562
HOP-92 = test system: HOP-92
A549 = test system: A549
TK-10 = test system: TK-10
NCI/ADR-RES = test system: NCI/ADR-RES
CCRF-CEM = test system: CCRF-CEM
SK-MEL-5 = test system: SK-MEL-5
SF-295 = test system: SF-295
OVCAR-3 = test system: OVCAR-3
SK-OV-3 = test system: SK-OV-3

C[C@H](CCC(=O)O)[C@H]1CC[C@H]2[C@@H]3C(=O)C[C@@H]4C[C@H](O)CC[C@]4(C)[C@H]3C[C@H](O)[C@]12C
GI50 (UACC-62): > 100 µM (inactive)
GI50 (MDA-N): > 100 µM (inactive)
GI50 (SK-MEL-2): > 100 µM (inactive)
GI50 (EKVX): > 100 µM (inactive)
GI50 (MOLT-4): > 100 µM (inactive)
GI50 (M14): > 100 µM (inactive)
GI50 (NCI-H23): > 100 µM (inactive)
GI50 (UO-31): > 100 µM (inactive)
GI50 (SN12C): > 100 µM (inactive)
GI50 (IGROV-1): > 100 µM (inactive)
GI50 (RPMI-8226): > 100 µM (inactive)
GI50 (OVCAR-4): > 100 µM (inactive)
GI50 (RXF 393): > 100 µM (inactive)
GI50 (NCI-H522): > 100 µM (inactive)
GI50 (Malme-3M): > 100 µM (inactive)
GI50 (OVCAR-5): > 100 µM (inactive)
GI50 (MCF7): > 100 µM (inactive)
GI50 (SF-268): > 100 µM (inactive)
GI50 (ACHN): > 100 µM (inactive)
GI50 (DU-145): > 100 µM (inactive)
GI50 (HCT-15): > 100 µM
GI50 (CAKI-1): > 100 µM (inactive)
GI50 (Hs-578T): < 0.01 µM (active)
GI50 (HOP-62): > 100 µM (inactive)
GI50 (HL-60): > 100 µM (inactive)
GI50 (HCC 2998): > 100 µM (inactive)
GI50 (UACC-257): > 100 µM (inactive)
GI50 (SF-539): > 100 µM (inactive)
GI50 (SK-MEL-28): > 100 µM (inactive)
GI50 (SNB-19): > 100 µM (inactive)
GI50 (PC-3): > 100 µM (inactive)
GI50 (LOX IMVI): > 100 µM (inactive)
GI50 (SW-620): > 100 µM (inactive)
GI50 (SR): > 100 µM (inactive)
GI50 (MDA-MB-231): > 100 µM (inactive)
GI50 (A498): > 100 µM (inactive)
GI50 (BT-549): > 100 µM (inactive)
GI50 (HCT-116): > 100 µM (inactive)
GI50 (KM12): > 100 µM (inactive)
GI50 (SNB-75): 85.5 µM (inactive)
GI50 (NCI-H226): > 100 µM (inactive)
GI50 (786-0): > 100 µM (inactive)
GI50 (HT-29): > 100 µM (inactive)
GI50 (COLO 205): > 100 µM (inactive)
GI50 (NCI-H460): > 100 µM (inactive)
GI50 (OVCAR-8): > 100 µM (inactive)
GI50 (U-251): > 100 µM (inactive)
GI50 (MDA-MB-435): > 100 µM (inactive)
GI50 (T47D): > 100 µM (inactive)
GI50 (K562): > 100 µM (inactive)
GI50 (HOP-92): > 100 µM (inactive)
GI50 (A549): > 100 µM (inactive)
GI50 (TK-10): > 100 µM (inactive)
GI50 (NCI/ADR-RES): > 100 µM (inactive)
GI50 (CCRF-CEM): > 100 µM (inactive)

Cc1cccc(-c2cc(O)c3ccc(C)nc3n2)c1
GI50 (UACC-62): 0.41 µM (active)
GI50 (MDA-N): 0.0283 µM (active)
GI50 (SK-MEL-5): 0.0895 µM (active)
GI50 (SK-MEL-2): 0.421 µM (active)
GI50 (MOLT-4): 0.421 µM (active)
GI50 (SF-295): 0.278 µM (active)
GI50 (M14): 0.226 µM (active)
GI50 (NCI-H23): 0.643 µM (active)
GI50 (UO-31): 3.77 µM (inactive)
GI50 (SN12C): 0.668 µM (active)
GI50 (IGROV-1): 0.601 µM (active)
GI50 (RPMI-8226): 0.43 µM (active)
GI50 (OVCAR-4): 10 µM (inactive)
GI50 (RXF 393): 0.456 µM (active)
GI50 (NCI-H522): 0.194 µM (active)
GI50 (Malme-3M): 0.296 µM (active)
GI50 (OVCAR-5): 0.723 µM (active)
GI50 (MCF7): 0.443 µM (active)
GI50 (SF-268): 0.723 µM (active)
GI50 (ACHN): 0.711 µM (active)
GI50 (DU-145): 0.598 µM (active)
GI50 (HCT-15): 0.194 µM
GI50 (CAKI-1): 0.256 µM (active)
GI50 (Hs-578T): 0.337 µM (active)
GI50 (HOP-62): 0.546 µM (active)
GI50 (HL-60): 0.0902 µM (active)
GI50 (HCC 2998): 1.07 µM (active)
GI50 (SF-539): 0.338 µM (active)
GI50 (SK-MEL-28): 2.75 µM (inactive)
GI50 (SNB-19): 0.506 µM (active)
GI50 (PC-3): 0.261 µM (active)
GI50 (LOX IMVI): 0.556 µM (active)
GI50 (SW-620): 0.101 µM (active)
GI50 (SR): 0.0491 µM (active)
GI50 (MDA-MB-231): 0.409 µM (active)
GI50 (A498): 0.644 µM (active)
GI50 (BT-549): 0.435 µM (active)
GI50 (OVCAR-3): 0.188 µM (active)
GI50 (HCT-116): 0.297 µM (active)
GI50 (KM12): 0.12 µM (active)
GI50 (SNB-75): 0.233 µM (active)
GI50 (NCI-H226): 0.367 µM (active)
GI50 (786-0): 0.43 µM (active)
GI50 (HT-29): 0.198 µM (active)
GI50 (COLO 205): 0.14 µM (active)
GI50 (SK-OV-3): 0.656 µM (active)
GI50 (NCI-H460): 0.334 µM (active)
GI50 (OVCAR-8): 0.8 µM (active)
GI50 (U-251): 0.389 µM (active)
GI50 (MDA-MB-435): 0.0294 µM (active)
GI50 (T47D): 0.249 µM (active)
GI50 (K562): 0.0993 µM (active)
GI50 (HOP-92): 1.14 µM (inactive)
GI50 (A549): 0.508 µM (active)
GI50 (TK-10): 3.3 µM (inactive)
GI50 (NCI/ADR-RES): 0.141 µM (active)
GI50 (CCRF-CEM): 0.354 µM (active)
